Read-outs that look alike come from different tables or passages of the source. Residues, ends and D or L forms follow the SMILES beside them. No end group written: not given here.
Tests used:
[1] = test system: thrombus induced in the jugular vein; assay: Rabbit thrombus model biodistribution and gamma camera imaging; assay type: in vivo; details: for localization to / uptake in the clot in gamma camera images (in words): thrombus in left jugular vein, Tc-99m labeled peptide (FIGS. 3-5)
Procedure: Two kg or larger white New Zealand rabbits were anesthetised and a thrombus induced in the jugular vein as follows: the jugular vein was surgically exposed, side branches tied off and a segment of about 1 inch in length was clamped off. A silk thread was introduced through the segment with both ends external. Ten units of bovine thrombin in Tris-buffered saline (TBS) pH 7.5 were added by syringe. After 10 minutes, the clamp was removed and the wound closed. After 1 hour, approximately 50 μg of a MRU conjugate which is a fusion peptide labeled with Tc-99m as described in Section 8.1, supra, was injected via the contralateral ear vein. I-125 labeled fibrinogen was subsequently injected as a control in order to assess normal blood clearance and clot localization. […] The animals were then sacrificed and the amount of Tc-99m and I-125 in various organs was assessed. A Tc-99m labeled nonspecific peptide analogue containing the RYYD sequence served as a control.

[2] = molecular target: T1, activated platelet fibrinogen receptor (Homo sapiens, UniProt P05106+P08514); assay: Inhibition of binding of 125-I PAC-1 antibody to activated platelets; details: inhibition of 125-I PAC-1 binding to platelets activated with PMA or ADP, 37 degrees C, 1 hr; read-out: IC-50 (μM) Binding
T1 construct: Platelets were isolated by placing 7 ml of platelet-rich-plasma onto a 50 ml column of Sepharose 2-B; endogenous in cells
T1 sequence (P08514 32-887 limits assumed): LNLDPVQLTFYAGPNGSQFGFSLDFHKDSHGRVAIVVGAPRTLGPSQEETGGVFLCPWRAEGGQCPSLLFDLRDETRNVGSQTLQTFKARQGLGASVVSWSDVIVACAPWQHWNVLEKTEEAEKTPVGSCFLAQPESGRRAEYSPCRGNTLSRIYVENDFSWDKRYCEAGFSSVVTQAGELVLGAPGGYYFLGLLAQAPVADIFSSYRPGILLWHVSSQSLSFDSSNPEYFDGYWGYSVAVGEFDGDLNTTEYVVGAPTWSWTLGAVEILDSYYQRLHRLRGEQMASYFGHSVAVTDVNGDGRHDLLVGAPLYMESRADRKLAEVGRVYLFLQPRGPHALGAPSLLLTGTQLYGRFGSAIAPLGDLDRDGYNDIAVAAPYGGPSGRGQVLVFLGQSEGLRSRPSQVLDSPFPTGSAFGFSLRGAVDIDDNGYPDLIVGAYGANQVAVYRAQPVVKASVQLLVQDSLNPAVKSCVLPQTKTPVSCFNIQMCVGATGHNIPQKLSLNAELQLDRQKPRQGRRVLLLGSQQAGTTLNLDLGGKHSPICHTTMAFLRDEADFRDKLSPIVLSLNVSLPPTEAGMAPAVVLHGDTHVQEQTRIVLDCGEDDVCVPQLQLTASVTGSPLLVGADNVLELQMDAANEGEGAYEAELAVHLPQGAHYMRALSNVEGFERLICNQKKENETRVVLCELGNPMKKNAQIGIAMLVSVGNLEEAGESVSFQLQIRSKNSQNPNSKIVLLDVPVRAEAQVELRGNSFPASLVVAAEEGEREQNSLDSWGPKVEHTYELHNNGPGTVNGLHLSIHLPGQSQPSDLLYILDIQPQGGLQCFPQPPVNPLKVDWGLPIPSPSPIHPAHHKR
T1 sequence (P08514 891-1039 partner limits assumed): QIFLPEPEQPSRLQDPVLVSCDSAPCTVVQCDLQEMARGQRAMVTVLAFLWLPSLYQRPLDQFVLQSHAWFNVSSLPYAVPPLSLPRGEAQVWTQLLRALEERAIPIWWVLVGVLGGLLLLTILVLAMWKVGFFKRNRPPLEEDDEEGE
T1 sequence (P05106 27-788): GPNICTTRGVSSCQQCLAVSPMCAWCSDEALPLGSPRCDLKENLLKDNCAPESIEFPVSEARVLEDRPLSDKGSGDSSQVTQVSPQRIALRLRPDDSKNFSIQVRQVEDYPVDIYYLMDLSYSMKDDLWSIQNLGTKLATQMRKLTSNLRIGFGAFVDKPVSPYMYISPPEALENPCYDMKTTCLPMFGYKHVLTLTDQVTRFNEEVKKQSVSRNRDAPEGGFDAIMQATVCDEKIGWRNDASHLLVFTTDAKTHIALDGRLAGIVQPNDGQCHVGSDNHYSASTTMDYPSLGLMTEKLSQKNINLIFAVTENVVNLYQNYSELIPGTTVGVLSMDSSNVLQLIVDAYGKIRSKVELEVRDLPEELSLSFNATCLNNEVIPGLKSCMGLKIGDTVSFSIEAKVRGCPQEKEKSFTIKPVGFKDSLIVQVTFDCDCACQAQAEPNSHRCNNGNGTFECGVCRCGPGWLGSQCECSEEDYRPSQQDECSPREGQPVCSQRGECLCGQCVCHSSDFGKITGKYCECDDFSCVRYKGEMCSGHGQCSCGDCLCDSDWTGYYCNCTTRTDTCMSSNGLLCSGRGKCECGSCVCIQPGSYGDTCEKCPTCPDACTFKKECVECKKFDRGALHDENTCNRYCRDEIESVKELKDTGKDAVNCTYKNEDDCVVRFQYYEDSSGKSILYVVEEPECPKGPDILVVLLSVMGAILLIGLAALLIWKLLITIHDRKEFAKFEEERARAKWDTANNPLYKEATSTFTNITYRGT
Procedure: The ability of the fusion peptides and of peptides comprising the binding domain of the peptides, specific for the activated platelet fibrinogen receptor, to inhibit the binding of PAC-1 antibody was assessed as follows:
Platelets were isolated by placing 7 ml of platelet-rich-plasma onto a 50 ml column of Sepharose 2-B equilibrated in Walshes 1% BSA buffer (1.0 g NaCl, 0.2 g KCl, 0.2 g MgCl2, 0.45 g NaH 0.9 g HEPES, 1.0 g BSA and 1.0 g dextrose in sufficient water to make exactly 1 liter), pH 7.45. The cloudiest tubes were pooled to obtain 14 ml of platelets (approximately 300,000/μl). The peptide in Walshes 1% BSA buffer and 20,000 CpM of 125-I-pAC 1 (5 μCi/μg) was added to one ml of this in a microfuge tube. Platelets were next activated with 0.1 μM phorbol myristate acetate or 10 μM ADP at 37 degrees C. After 1 hr, platelets were pelleted at top speed in a horizontal microfuge, washed gently, and the tube bottom removed with dog nail clippers and it, supernatant and wash were counted in a […]. […] Varied levels of peptide were examined and IC-50 was determined from a graph of % inhibition versus peptide concentration.

[3] = assay type: in vitro ADME, human; details: 37° C
Procedure: A representative peptide designated "Pac-2" of the sequence: […] was labeled with 125-Iodine via standard techniques (Iodobead) (see Markwell, 1982, Anal. Biochem. 125: 427-32). Stability of the labeled peptide, having either an unblocked or blocked amino terminal end, to proteolytic enzymes in plasma was assayed as follows: Labeled peptides were incubated in fresh citrated human platelet-poor plasma in sealed tubes at 37° C. Aliguots were removed at various times and assayed using reverse phase HPLC. Degradation was calculated by loss of the original radioactive peak on a reverse phase HPLC C-6 column using 0-60% acetonitrile in 20 mM Na phosphate, pH, 6.0. Inhibitors of proteolytic enzymes in plasma were used to identify responsible enzyme classes and included: EDTA (metalloenzymes), benzamidine (serine endoproteases), bestatin (aminopeptidases) and leupeptin ([…]).

[4] = molecular target: platelet aggregation (Homo sapiens, UniProt P05106+P08514); assay: Inhibition of platelet aggregation (Payton Aggregometer, ADP); assay type: cell-based
platelet aggregation, sequence (P08514 32-1039): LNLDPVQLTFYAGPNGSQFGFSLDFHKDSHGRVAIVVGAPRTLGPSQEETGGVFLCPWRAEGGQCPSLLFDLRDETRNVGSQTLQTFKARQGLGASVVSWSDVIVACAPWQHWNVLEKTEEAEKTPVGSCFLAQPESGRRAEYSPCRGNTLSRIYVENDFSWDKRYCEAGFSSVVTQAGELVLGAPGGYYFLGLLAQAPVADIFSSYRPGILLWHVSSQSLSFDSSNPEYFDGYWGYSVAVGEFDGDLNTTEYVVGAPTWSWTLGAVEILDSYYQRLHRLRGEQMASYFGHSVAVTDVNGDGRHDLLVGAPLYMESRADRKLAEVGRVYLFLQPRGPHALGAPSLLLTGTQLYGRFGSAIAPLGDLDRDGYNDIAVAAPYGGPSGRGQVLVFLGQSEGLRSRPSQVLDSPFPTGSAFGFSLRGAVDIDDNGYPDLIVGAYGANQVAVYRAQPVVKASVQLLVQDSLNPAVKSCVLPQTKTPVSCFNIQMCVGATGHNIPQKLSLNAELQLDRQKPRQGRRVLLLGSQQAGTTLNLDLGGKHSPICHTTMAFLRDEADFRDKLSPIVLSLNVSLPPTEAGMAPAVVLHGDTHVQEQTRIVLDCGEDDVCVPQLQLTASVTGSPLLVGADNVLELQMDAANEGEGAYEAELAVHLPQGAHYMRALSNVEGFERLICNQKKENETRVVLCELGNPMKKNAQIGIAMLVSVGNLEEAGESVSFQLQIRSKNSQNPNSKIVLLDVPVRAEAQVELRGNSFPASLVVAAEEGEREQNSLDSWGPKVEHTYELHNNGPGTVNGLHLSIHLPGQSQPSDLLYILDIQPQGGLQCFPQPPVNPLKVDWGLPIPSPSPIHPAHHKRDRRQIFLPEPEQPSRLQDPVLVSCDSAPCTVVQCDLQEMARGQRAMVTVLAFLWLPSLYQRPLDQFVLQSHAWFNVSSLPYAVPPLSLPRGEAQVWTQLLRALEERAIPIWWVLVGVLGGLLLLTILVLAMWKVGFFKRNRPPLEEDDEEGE
platelet aggregation, sequence (P05106 27-788): as the sequence (P05106 27-788) above
Procedure: The ability of the fusion peptides and of peptides comprising the binding domain of the fusion peptides to inhibit platelet aggregation was assessed as follows:
[…], human plasma was prepared by centrifugation of citrated human plasma at 900 rpm, Sorvall Rc-3, for 20 minutes at room temperature. 0.5 mL of the platelet solution was placed in the cuvette of a Payton Aggregometer, followed by 50 μL of a solution containing various concentrations, up to 200 μM, of the peptide being assayed. After 1 minute, 5 μL of 10 mM ADP in water was added. The aggregation rate was assessed by a change in the slope of the absorbance curve.

Compound: CC(=O)N[C@@H](CO)C(=O)N[C@@H](Cc1ccc(O)cc1)C(=O)NCC(=O)N[C@@H](CCCNC(=N)N)C(=O)NCC(=O)N[C@@H](CC(=O)O)C(=O)N[C@H](C(=O)N[C@@H](CCCNC(=N)N)C(=O)NCC(=O)N[C@@H](CC(=O)O)C(=O)N[C@@H](Cc1ccccc1)C(=O)N[C@@H](CCCCN)C(=O)N[C@@H](CS)C(=O)N[C@H](C(=O)N[C@@H](CS)C(=O)N[C@@H](CS)C(=O)N[C@@H](C)C(N)=O)[C@@H](C)O)C(C)C [PAC-8] (Ac-SYGRGDVRGDFKCTCCA-NH2)
- time after injection at which the clot is imaged ([1]; gamma camera): ≤ 18 min
- persistence of the clot image ([1]; gamma camera (FIG. 3D)): ≥ 4 h
- localization to / uptake in the clot in gamma camera images (in words) [1]: localizes to and images the clot

Compound: CC(=O)N[C@@H](CCCCN)C(=O)N[C@@H](CS)C(=O)N[C@H](C(=O)N[C@@H](CS)C(=O)N[C@@H](CS)C(=O)N[C@@H](C)C(=O)N1CCC[C@H]1C(=O)N[C@@H](CO)C(=O)N[C@@H](Cc1ccc(O)cc1)C(=O)N[C@@H](Cc1ccc(O)cc1)C(=O)N[C@@H](CCCNC(=N)N)C(=O)NCC(=O)N[C@@H](CC(=O)O)C(=O)NCC(=O)N[C@@H](C)C(=O)N1CCC[C@H]1C(=O)N[C@@H](CO)C(=O)N[C@@H](Cc1ccc(O)cc1)C(=O)N[C@@H](Cc1ccc(O)cc1)C(=O)N[C@@H](CCCNC(=N)N)C(=O)NCC(=O)N[C@@H](CC(=O)O)C(=O)NCC(=O)N[C@@H](C)C(=O)N1CCC[C@H]1C(=O)N[C@@H](CO)C(=O)N[C@@H](Cc1ccc(O)cc1)C(=O)N[C@@H](Cc1ccc(O)cc1)C(=O)N[C@@H](CCCNC(=N)N)C(=O)NCC(=O)N[C@@H](CC(=O)O)C(=O)N[C@@H](C)C(N)=O)[C@@H](C)O [PAC-15] (Ac-KCTCCAPSYYRGDGAPSYYRGDGAPSYYRGDA-NH2)
- localization to / uptake in the clot in gamma camera images (in words) [1]: clearly localize and permit imaging of the clot

Compound: CC(=O)N1CCC[C@H]1C(=O)N[C@@H](CO)C(=O)N[C@@H](Cc1ccc(O)cc1)C(=O)N[C@@H](Cc1ccc(O)cc1)C(=O)N[C@@H](CCCNC(=N)N)C(=O)NCC(=O)N[C@@H](CC(=O)O)C(=O)NCC(=O)N[C@@H](C)C(=O)N1CCC[C@H]1C(=O)N[C@@H](CO)C(=O)N[C@@H](Cc1ccc(O)cc1)C(=O)N[C@@H](Cc1ccc(O)cc1)C(=O)N[C@@H](CCCNC(=N)N)C(=O)NCC(=O)N[C@@H](CC(=O)O)C(=O)NCC(=O)N[C@@H](C)C(=O)N1CCC[C@H]1C(=O)N[C@@H](CO)C(=O)N[C@@H](Cc1ccc(O)cc1)C(=O)N[C@@H](Cc1ccc(O)cc1)C(=O)N[C@@H](CCCNC(=N)N)C(=O)NCC(=O)N[C@@H](CC(=O)O)C(=O)N[C@@H](C)C(=O)N[C@@H](CCCCN)C(=O)N[C@@H](CS)C(=O)N[C@H](C(=O)N[C@@H](CS)C(=O)N[C@@H](CS)C(=O)N[C@@H](C)C(N)=O)[C@@H](C)O [PAC-16] (Ac-PSYYRGDGAPSYYRGDGAPSYYRGDAKCTCCA-NH2)
- localization to / uptake in the clot in gamma camera images (in words) [1]: clearly localize and permit imaging of the clot

Compound: ARRSPSYYRGDAGPYYAMDY
- IC50 [2]: 10 µM

Compound: ARRSPSYYRYDAGPYYAMDY
- IC50 [2]: 90 µM

Compound: acARRSPSYYRGDAGPYYAMDYKCTCCA-a [PAC-2]
- Half-Life ([3]; inhibitor 1 mM Bestatin, human platelet-poor plasma): 8.5 min
- Half-Life ([3]; no inhibitor, 125-I labeled peptide in citrated human platelet-poor plasma): 2.1 min

Compound: acARRSPSYYRYYDAGPYYAMDYKCTCCA-a [PAC-3]
- inhibition of platelet aggregation and/or PAC-1 binding (in words) [4]: lack of platelet inhibition
- localization to / uptake in the clot in gamma camera images (in words) [1]: no uptake in the region of the clot

Source: patent US5196510A, “Molecular recognition units” (Cytogen Corporation, priority 1990, dated 1993)
